PMC2810428 (Journal of medicinal chemistry, 2010)

Legend:
L1210 and B16 cells = conditions: read-out: reported IC50 values for L1210 and B16 cells; ref [3]–[5]; cited from earlier work
L1210 cells = experiment: Inhibition of L1210 cell growth; assay type: cell-based, murine; conditions: L1210 IC50, 9b versus 9a
WTβIII = WTβIII vs HeLa pair; ref [32]; cited from earlier work
SK-OV-3-MDR 1–6/6 = SK-OV-3-MDR 1–6/6 vs SK-OV-3 pair; ref [32]; cited from earlier work
MDA-MB-435 cells = experiment: Cell cycle analysis by flow cytometry; assay type: cell-based, human; conditions: paclitaxel positive control (0.0125 µM), data not shown

SMILES	IC50 (L1210 and B16 cells) [nM]	fold decrease in potency on shifting nitro group to the 3’ position (L1210 cells) [fold]	Rr (relative resistance) (WTβIII)	Rr (relative resistance) (SK-OV-3-MDR 1–6/6)	cell cycle distribution (MDA-MB-435 cells)
COc1ccc(/C=C\c2cc(OC)c(OC)c(OC)c2)cc1O [Compound 1, Combretastatin A-4]	3 to 7	–	–	–	–
COc1cc(C2=NN(C(C)=O)C(c3cccc([N+](=O)[O-])c3)O2)cc(OC)c1OC (stereo not shown) [Compound 9b]	–	9	–	–	–
COc1cc2c(cc1O)CC[C@@H]1[C@@H]2CC[C@]2(C)[C@@H](O)CC[C@@H]12 [2-methoxyestradiol]	–	–	1.0	2.6	–
CC(=O)O[C@H]1C(=O)[C@@]2(C)[C@H]([C@H](OC(=O)c3ccccc3)[C@]3(O)C[C@H](OC(=O)[C@H](O)[C@@H](NC(=O)c4ccccc4)c4ccccc4)C(C)=C1C3(C)C)[C@]1(OC(C)=O)CO[C@@H]1C[C@@H]2O [paclitaxel]	–	–	4.7	860	identical effect
